Reference: patent US20210186982A1, “METHODS AND COMPOSITIONS FOR TREATING MELANOMA” (UNIVERSITE NICE SOPHIA ANTIPOLIS, priority 2017, published 2021)

Experiments:
12051u and A375 cells = assay: Immunoblot analysis of proliferation and apoptosis proteins; format: cell-based, human
Procedure: (§1) Melanoma cells were harvested as described before 6. Cells were lysed at 4° C. in RIPA buffer (Millipore) supplemented with Pierce™ Protease and Phosphatase Inhibitor Mini Tablets, and briefly sonicated. Cell lysates were cleared at 16,000 xg for 15 min at 4° C. Whole cell lysates were subjected to SDS-PAGE and immunoblot analysis as previously described 6.

Me1501 and A375 cells = assay: Colony formation; format: cell-based, human; conditions: compared to untreated cells
Procedure: Alternatively, cell growth was assessed by crystal violet staining on cells seeded in 24-well plates for the indicated time. After treatment, cells were fixed in PFA 3% during 20 min, washed with PBS 3 times and stained with crystal violet 0.4% in ethanol 20% for 30 min.

A375 cells = assay: Cell cycle / sub-G1 analysis by flow cytometry (PI); format: cell-based, human; conditions: 24 h
Procedure: (§2) Cell cycle profiles and sub-G1 analysis were performed by flow cytometry analysis of propidium iodide (PI)-stained cells. Briefly, following permeabilization in icecold ethanol 70%, cells were stained with PI 40 μg/ml in PBS supplemented with RNAse A 100 μg/ml before analysis using a BD FACSCanto cytometer.

12051u cells = assay: as above; format: cell-based, human; conditions: 24 h
Procedure: as §2

MeWo = assay: MTS conversion assay, melanoma cell proliferation; format: cell-based; conditions: Homo sapiens, MET, p53*/CDKN2A*, resistance none, 48 h MTS, read-out: b-AP15 IC50
Procedure: (§3) Cell proliferation was measured by a MTS conversion assay using the CellTiter 96® Aqueous Non-Radioactive Cell Proliferation kit (Promega, Madison Wis.) according to the manufacturer instructions. Cells were seeded in 96-well plates (5×10^4 cells/well) and treated with different reagents for the indicated times and incubated at 37° C. with MTS reagent. The optical density of each sample at 490 nm was determined with a Multiskan FC plate reader (Thermo Fisher Scientific, Waltham, Mass. USA).

WM266-4 = assay: MTS conversion assay, melanoma cell proliferation; format: cell-based; conditions: Homo sapiens, WM 266-4, MET, BRAFV600D/PTEN*, resistance none, 48 h MTS, read-out: b-AP15 IC50
Procedure: as §3

A375DR = assay: MTS conversion assay, melanoma cell proliferation; format: cell-based; conditions: Homo sapiens, MET, BRAFV600E/CDKN2A*/?, resistance vemurafenib/ERKi, 48 h MTS, read-out: b-AP15 IC50
Procedure: as §3

WM164 = assay: MTS conversion assay, melanoma cell proliferation; format: cell-based; conditions: Homo sapiens, MET, BRAFV600E/CDKN2A*, resistance none, 48 h MTS, read-out: b-AP15 IC50
Procedure: as §3

Mel1617 = assay: MTS conversion assay, melanoma cell proliferation; format: cell-based; conditions: Homo sapiens, MET, BRAF*/p53*, resistance none, 48 h MTS, read-out: b-AP15 IC50
Procedure: as §3

m249R = assay: MTS conversion assay, melanoma cell proliferation; format: cell-based; conditions: Homo sapiens, MET, BRAFV600E/PTEN*/NRAS*, resistance vemurafenib, 48 h MTS, read-out: b-AP15 IC50
Procedure: as §3

451Iu = assay: MTS conversion assay, melanoma cell proliferation; format: cell-based; conditions: Homo sapiens, MET, BRAFV600E/p53*, resistance none, 48 h MTS, read-out: b-AP15 IC50
Procedure: as §3

m249 = assay: MTS conversion assay, melanoma cell proliferation; format: cell-based; conditions: Homo sapiens, MET, BRAFV600E/PTEN*, resistance none, 48 h MTS, read-out: b-AP15 IC50
Procedure: as §3

Mel1617R = assay: MTS conversion assay, melanoma cell proliferation; format: cell-based; conditions: Homo sapiens, MET, BRAF*/p53*/?, resistance dabrafenib, 48 h MTS, read-out: b-AP15 IC50
Procedure: as §3

m238 = assay: MTS conversion assay, melanoma cell proliferation; format: cell-based; conditions: Homo sapiens, MET, BRAFV600E/PTEN*, resistance none, 48 h MTS, read-out: b-AP15 IC50
Procedure: as §3

HMV2 = assay: MTS conversion assay, melanoma cell proliferation; format: cell-based; conditions: Homo sapiens, HMV-2, MET, NRAS*, resistance none, 48 h MTS, read-out: b-AP15 IC50
Procedure: as §3

WM793 = assay: MTS conversion assay, melanoma cell proliferation; format: cell-based; conditions: Homo sapiens, VGP, BRAFV600E/PTEN*, resistance none, 48 h MTS, read-out: b-AP15 IC50
Procedure: as §3

16 melanoma cell lines = assay: MTS proliferation assay, collection of melanoma cell lines; format: cell-based; conditions: Homo sapiens, range over 16 melanoma cell lines, read-out: IC50 of b-AP15 for 16 melanoma cell lines
Procedure: as §3

[1] = Body weight during xenograft study; format: in vivo; conditions: 10 mgkg-1 i.p. every 3 days; nude mice; course of the study
Procedure: All mouse experiments were carried out in accordance with the Institutional Animal Care and the local ethics committee. For human melanoma xenografts, 5-week-old female athymic (nu/nu) mice (Harlan) were subcutaneously injected with 1×106 451Lu-R BRAF inhibitor resistant melanoma cells engineered to express a luciferase reporter (451Lu-R Luc+ cells) in 100 μl of PBS. After 3 days, mice were injected every 3 days intraperitoneally with vehicle or 10 mgkg-1 b-AP15 in 90/1/9 mix of Labrafil/Tween 80/DMA. At the indicated time, mice were anesthetized and injected intraperitoneally with 50 mgkg-1 D-luciferin (Perkin Elmer) in PBS. Images were acquired using a Photon Imager (Biospace Lab) system and data analysed with the M3Vision software (Biospace Lab). Tumor growth was monitored and quantified using BLI. The total numbers of photons per second per steradian per square centimeter were recorded. For BLI plots, photon flux was calculated for each mouse by using a rectangular region of interest encompassing the thorax of the mouse in a prone position.

[2] = tested on: K48-linked poly-ubiquitinated proteins; assay: Immunoblot analysis of poly-ubiquitinated proteins in A375 cells; format: cell-based, human
Procedure: as §1

A375 = assay: Real-time imaging growth curve (IncuCyte Zoom); format: cell-based, human; conditions: 2 μM; 3 days; compared with bortezomib and VLX1570
Procedure: FIG. 8. USP14 inhibition induces growth inhibition and cytotoxicity on melanoma cell lines. (A) Growth curve of A375 treated with 2 μM b-AP15, 2 μM VLX1570 or […] bortezomib (BTZ). Data were acquired in triplicate during 3 days using an IncuCyte Zoom. (B) and (C) Cytotoxic effects of USP14 inhibition on melanoma cells. A375 and Me1501 cells were treated with the indicated doses of b-AP15 or VLX1570, and stained with cytotox green reagent (100 nM). Cytotoxicity was monitored in triplicate for 72 h with an IncuCyte imaging system.

**Q.** Which results are given for Cc1cc(C(=O)CN2CCCC2)c(C)n1-c1ccc(F)cc1 [b-AP15]?
**A.** levels of p53 and of the cell cycle inhibitor p21 (12051u and A375 cells): increased; levels of phosphorylated Rb proteins (12051u and A375 cells): reducing; ability to form colonies, compound treatment (Me1501 and A375 cells): no longer capable of forming colonies; sub-G1 cell population with reduced DNA content (A375 cells): 11%; sub-G1 cell population with reduced DNA content (12051u cells): 19%; IC50 (MeWo): 700 nM; IC50 (WM266-4): 500 nM; IC50 (A375DR): 1300 nM; IC50 (WM164): 900 nM; IC50 (Mel1617): 1400 nM; IC50 (m249R): 3000 nM; IC50 (451Iu): 900 nM; IC50 (m249): 2000 nM; IC50 (Mel1617R): 900 nM; IC50 (m238): 400 nM; IC50 (HMV2): 1800 nM; IC50 (WM793): 300 nM; IC50 (16 melanoma cell lines): 400 to 2000 nM; tolerability / weight loss [1]: no weight loss was observed; K48-linked poly-ubiquitinated proteins [2]: induced a rapid accumulation; effect on cell proliferation, real-time imaging (A375): rapid
